Results: US4882348A, “2-(aminoalkylthio)imidazoles as dopamine-β-hydroxylase inhibitors” (SmithKline Beckman Corporation, priority 1987, dated 1989)
pIC50: −log10 of the molar value.

Key:
[1] = system: Spontaneously hypertensive rats; assay: mean arterial blood pressure in spontaneously hypertensive rats; format: in vivo; details: 50 mg/kg intraperitoneally
Procedure: Spontaneously hypertensive rats were treated with 2-(2-aminoethylthio) 1-(3,5 difluorobenzyl)imidazole at a dose of 50 mg/kg intraperitoneally, and mean arterial blood pressure was monitored for four hours using an indwelling cannula in the femoral artery. […] The maximal blood pressure reduction was approximately 10 mmHg.

[2] = target: T1, DBH (Bos taurus, UniProt P15101); assay: in vitro DBH inhibition, conversion of tyramine to octopamine; format: biochemical; details: octopamine assayed as p-hydroxybenzaldehyde after sodium periodate oxidation, absorbance at 330 nm; read-out: IC50 (molar concentration of compound at which DBH activity was halved)
T1 sequence (P15101 1-610): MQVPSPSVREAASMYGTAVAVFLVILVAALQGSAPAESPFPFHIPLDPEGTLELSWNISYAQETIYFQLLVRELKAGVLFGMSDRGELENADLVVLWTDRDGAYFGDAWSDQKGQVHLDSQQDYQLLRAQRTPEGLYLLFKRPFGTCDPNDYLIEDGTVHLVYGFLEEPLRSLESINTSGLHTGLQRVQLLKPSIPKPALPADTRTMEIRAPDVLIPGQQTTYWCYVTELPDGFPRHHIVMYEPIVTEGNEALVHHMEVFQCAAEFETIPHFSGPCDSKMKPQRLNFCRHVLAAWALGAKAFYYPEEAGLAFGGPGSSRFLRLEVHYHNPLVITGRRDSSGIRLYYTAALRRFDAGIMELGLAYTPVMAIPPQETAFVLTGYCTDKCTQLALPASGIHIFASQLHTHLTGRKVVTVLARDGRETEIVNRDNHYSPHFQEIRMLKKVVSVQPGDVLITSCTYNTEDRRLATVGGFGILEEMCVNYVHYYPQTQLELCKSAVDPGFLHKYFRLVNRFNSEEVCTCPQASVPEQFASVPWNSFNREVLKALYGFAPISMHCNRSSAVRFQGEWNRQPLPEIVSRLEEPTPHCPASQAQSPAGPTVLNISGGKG
Procedure: Listed in Table I are Formula (I) compounds that were tested for in vitro DBH inhibition by a standard procedure for assaying conversion of tyramine to octopamine in the presence of DBH. J. J. Pisano, et al., Biochim. Biophys. 43, 566-568 (1960). Octopamine was assayed following sodium periodate oxidation to p-hydroxybenzaldehyde by measuring spectrophotometric absorbance at 330 nm. Inhibition is given in molar concentration of compound at which DBH activity was halved (IC50).

With `Cl.Cl.NCCSc1nccn1Cc1cc(F)cc(F)c1` [2-(2-Aminoethylthio)-1-(3,5-difluorobenzyl)imidazole Dihydrochloride] the “maximal blood pressure reduction” value ([1]; mean arterial blood pressure, femoral artery cannula) was “approximately 10 mmHg”, the “blood pressure reduction compared to vehicle treated controls” value ([1]; monitored for four hours) was “significant blood pressure reductions” and the “time of lowest blood pressures after administration” value ([1]; monitored for four hours) was 3 to 4 h. For the same compound, the “time to significant blood pressure reductions” value ([1]; vs vehicle treated controls) was ≤ 30 min and the pIC50 [2] was 2.74.
